Measured values published in patent US8680042B2, “Methods of treating sickle cell anemia-related conditions with MK-801 or memantine” (Universität Zürich Prorektorat MNW, priority 2009, dated 2014).

Molecular target: T1, NMDA receptor in erythrocytes (Homo sapiens, UniProt Q05586)
T1 construct: Potassium and calcium fluxes through the NMDA receptor in erythrocytes of healthy donors (C) and patients with sickle cell anemia; endogenous in cells; host or cells: freshly isolated human erythrocytes (HbSS patients and healthy donors)
Experiment: Unidirectional K+ (86Rb) and Ca2+ (45Ca) fluxes via the cation channel of the NMDA receptor, radioactive tracer kinetics
Assay type: cell-based
Details: for NMDA- and PGE2-sensitive increase in fluxes: stimulated by NMDA (100 μM) or prostaglandine E2 (2 μM), blocker added
Experimental: FIGS. 2A and 2B: Potassium and calcium fluxes through the NMDA receptor in erythrocytes of healthy donors (C) and patients with sickle cell anemia (H). 2A: Unidirectional K^+ influx measured in chloride-free Na-methane sulfate medium in the presence of 100 μM ouabain, the inhibitor of […]. Conditions corresponding to the numbers at the X axis: (1) control; (2) 50 μM memantine chloride (Sigma-Aldhdge); (3) 100 μM NMDA; (4) NMDA+memantine chloride; (5) 2 μM prostaglandine E2 (PGE2); (6) PGE2+memantine chloride. * denotes p<0.05 compared to the corresponding values in healthy donor's erythrocytes, # stands for p<0.05 compared to the corresponding non-treated control. Data are means±SEM for 6-7 individuals. 2B: Unidirectional Ca^2+ influx in erythrocytes of a single HbSS patient measured on 3 different occasions and in three healthy donors. Conditions indicated in numbers at the X axis are: (1) non-treated control; (2) 100 μM NMDA; (3) 100 μM NMDA and 50 μM MK-801. * denotes p<0.05 compared to the corresponding healthy donors' samples.
The following experiments were conducted using fresh-isolated human erythrocytes of HbSS patients and healthy subjects.
Fluxes via the nonselective cation channel of the NMDA receptor were assessed using radioactive tracer kinetics. 86Rb was used as a radioactive tracer for K^+ and 45Ca as a tracer for Ca^2+. Fluxes through the red cell membrane were measures in the medium containing (mM) 145 Na-methane sulfate, 4 K-gluconate, 1 Ca-gluconate, 10 sucrose, 10 glucose and 10 HEPES-Tris (pH 7.4) in the presence of 100 μM L-arginine and 100 μM ouabain. Details of the flux measurement may be found elsewhere (e.g. Bogdanova et al., J Membr Biol. 2003; 195(1):33-42).

SMILES	NMDA- and PGE2-sensitive increase in fluxes	further results
C[C@]12N[C@H](Cc3ccccc31)c1ccccc12 [MK-801, Dizocilpine]	could be blocked	
CN[C@H](CC(=O)O)C(=O)O [NMDA, N-methyl D-aspartate]		Fluxes of both cations (K+ and Ca2+) (agonist 100 μM): further stimulated
CC12CC3CC(C)(C1)CC(N)(C3)C2 [memantine, Memantine]	could be blocked	
CCCCC[C@H](O)/C=C/[C@H]1[C@H](O)CC(=O)[C@@H]1C/C=C\CCCC(=O)O [prostaglandine E2]		Fluxes of both cations (K+ and Ca2+) (agonist 2 μM): further stimulated
